Converted amounts (≈) assume the structure as drawn. A value given as a limit tells only on which side of the number the result lay.

The subject of one test is Vero. Briefly: Cytotoxicity against Vero cell line at 62.5 ug/ml after 72 hrs. Type of test: functional, cell-based. The note with it: Chlorocebus sabaeus.
Test [1] in a line: Inhibition of Mycobacterium tuberculosis DNA gyrase.
The test system of test [2] is Mycobacterium tuberculosis. Description: Antimycobacterial activity against Mycobacterium tuberculosis H37Rv. The test is classed as functional.
Test [3] relates to Mycobacterium tuberculosis. Briefly: Activity against Mycobacterium tuberculosis ATCC 35801 in CD1 mouse at 50 mg/kg assessed as decrease in bacterial load in spleen relative to control. The test is classed as functional.
In test [4] the test system is Mycobacterium tuberculosis. Briefly: Activity against Mycobacterium tuberculosis ATCC 35801 in CD1 mouse at 50 mg/kg assessed as decrease in bacterial load in lung relative to control. Type of test: functional.
Test [5] deals with Mycobacterium tuberculosis. Description: Selectivity index (IC50/MIC). The test is classed as functional.

Usually IC50 stands for the point on the concentration scale where inhibition reaches its midpoint. Lower therefore signals inhibition by little substance. In general, MIC refers to the smallest concentration in the dilution series that meets the test's criterion for growth inhibition. Read a high MIC as a less susceptible organism. `COc1c(N2CCN(Cn3c(O)c(/N=N/C(N)=O)c4cc(Cl)ccc43)C(C)C2)c(F)cc2c(=O)c(C(=O)O)cn(C3CC3)c12` (centres undefined): the Activity entry with Vero is “Not toxic”. In test [1], this compound displayed an IC50 of 4 µg/mL (≈ 6.39 µM). In addition, the MIC in test [2] amounted to 0.39 µg/mL (≈ 0.623 µM).
The like results for `COc1c(N2CCN(Cn3c(O)c(/N=N/C(=N)S)c4ccccc43)C(C)C2)c(F)cc2c(=O)c(C(=O)O)cn(C3CC3)c12` (centres undefined) were, in that order, “Not toxic”, 5 µg/mL (≈ 8.23 µM) and 0.2 µg/mL (≈ 0.329 µM).
With `COc1c(N2CCNC(C)C2)c(F)cc2c(=O)c(C(=O)O)cn(C3CC3)c12` (centres undefined) [GATIFLOXACIN], the Log10 cfu came out at 6.14 in test [3] and 5.82 in test [4]. Moreover, the half-maximal inhibitory concentration (IC50) in test [1] was 4 µg/mL (≈ 10.7 µM). The MIC in test [2] came to 0.2 µg/mL (≈ 0.533 µM).
In the case of `COc1c(N2CCN(Cn3c(O)c(/N=N/C(=N)S)c4cc(C)ccc43)C(C)C2)c(F)cc2c(=O)c(C(=O)O)cn(C3CC3)c12` (centres undefined), the Activity result with Vero is “Not toxic”. The IC50 in test [1] amounted to 10 µg/mL (≈ 16.1 µM). Also, in test [2], the MIC amounted to 0.78 µg/mL (≈ 1.25 µM).
Regarding `COc1c(N2CCN(CN3C(=O)/C(=N\c4ccc(S(=O)(=O)Nc5ncccn5)cc4)c4cc(C)ccc43)C(C)C2)c(F)cc2c(=O)c(C(=O)O)cn(C3CC3)c12` (centres undefined), the Activity entry in the test on Vero is “Not toxic”. Further, in test [1], the concentration for half-maximal inhibition (IC50) is 3 µg/mL (≈ 3.84 µM). Also, in test [2], 0.1 µg/mL (≈ 0.128 µM) was the least that counted as inhibitory (MIC).
Regarding `COc1c(N2CCN(Cn3c(O)c(/N=N/C(N)=O)c4ccccc43)C(C)C2)c(F)cc2c(=O)c(C(=O)O)cn(C3CC3)c12` (centres undefined), the Activity result in the test with Vero was “Not toxic”. The Selectivity index in test [5] was greater than 1250. The Log10 cfu came to 5.08 in test [3] and 4.26 in test [4]. In test [1], this compound had an IC50 of 3 µg/mL (≈ 5.07 µM). Besides, in test [2], the minimum inhibitory concentration (MIC) stood at 0.0125 µg/mL (≈ 0.0211 µM).
With `COc1c(N2CCN(Cn3c(O)c(/N=N/C(=N)S)c4cc(F)ccc43)C(C)C2)c(F)cc2c(=O)c(C(=O)O)cn(C3CC3)c12` (centres undefined), the Activity entry in the test on Vero is “Not toxic”. In test [1], this compound showed a concentration for half-maximal inhibition (IC50) of 8 µg/mL (≈ 12.8 µM). In addition, it took 0.1 µg/mL (≈ 0.16 µM) to inhibit growth in test [2] (MIC).
The like results for `COc1c(N2CCN(Cn3c(O)c(/N=N/C(=N)S)c4cc(Cl)ccc43)C(C)C2)c(F)cc2c(=O)c(C(=O)O)cn(C3CC3)c12` (centres undefined) were, in that order, “Not toxic”, 4 µg/mL (≈ 6.23 µM) and 0.39 µg/mL (≈ 0.607 µM).
With `COc1c(N2CCN(Cn3c(O)c(/N=N/C(=O)c4ccncc4)c4cc(F)ccc43)C(C)C2)c(F)cc2c(=O)c(C(=O)O)cn(C3CC3)c12` (centres undefined), the Activity result with Vero was “Not toxic”. The compound also came in with a minimal inhibitory concentration (MIC) in test [2] of 0.78 µg/mL (≈ 1.16 µM).
Take `COc1c(N2CCN(Cn3c(O)c(/N=N/C(N)=O)c4cc(F)ccc43)C(C)C2)c(F)cc2c(=O)c(C(=O)O)cn(C3CC3)c12` (centres undefined): in the test on Vero, the Activity entry was “Not toxic”. The same compound displayed an IC50 in test [1] of 4 µg/mL (≈ 6.56 µM). This compound yielded an MIC in test [2] of 0.2 µg/mL (≈ 0.328 µM).
The like results for `COc1c(N2CCN(CN3C(=O)/C(=N\c4ccc(S(=O)(=O)Nc5ncccn5)cc4)c4cc(F)ccc43)C(C)C2)c(F)cc2c(=O)c(C(=O)O)cn(C3CC3)c12` (centres undefined) were, in that order, “Not toxic”, 6 µg/mL (≈ 7.65 µM) and 0.2 µg/mL (≈ 0.255 µM).
On the same counts, the results for `COc1c(N2CCN(Cn3c(O)c(/N=N/C(=O)c4ccncc4)c4ccccc43)C(C)C2)c(F)cc2c(=O)c(C(=O)O)cn(C3CC3)c12` (centres undefined) are “Not toxic”, 4 µg/mL (≈ 6.12 µM) and 0.78 µg/mL (≈ 1.19 µM).
The like results for `COc1c(N2CCN(Cn3c(O)c(/N=N/C(=O)c4ccncc4)c4cc(C)ccc43)C(C)C2)c(F)cc2c(=O)c(C(=O)O)cn(C3CC3)c12` (centres undefined) were, in that order, “Not toxic”, 5.5 µg/mL (≈ 8.24 µM) and 0.78 µg/mL (≈ 1.17 µM).
For the compound `COc1c(N2CCN(CN3C(=O)/C(=N\c4ccc(S(=O)(=O)Nc5ncccn5)cc4)c4cc(Cl)ccc43)C(C)C2)c(F)cc2c(=O)c(C(=O)O)cn(C3CC3)c12` (centres undefined), the Activity result in the test on Vero was “Not toxic”. In test [1], this compound registered an IC50 of 6 µg/mL (≈ 7.49 µM). The same compound displayed a minimum inhibitory concentration (MIC) in test [2] of 0.1 µg/mL (≈ 0.125 µM).
The like results for `COc1c(N2CCN(Cn3c(O)c(/N=N/C(=O)c4ccncc4)c4cc(Cl)ccc43)C(C)C2)c(F)cc2c(=O)c(C(=O)O)cn(C3CC3)c12` (centres undefined) were, in that order, “Not toxic”, 5 µg/mL (≈ 7.27 µM) and 0.39 µg/mL (≈ 0.567 µM).
On the same counts, the results for `COc1c(N2CCN(CN3C(=O)/C(=N\c4ccc(S(=O)(=O)Nc5ncccn5)cc4)c4ccccc43)C(C)C2)c(F)cc2c(=O)c(C(=O)O)cn(C3CC3)c12` (centres undefined) are “Not toxic”, 8 µg/mL (≈ 10.4 µM) and 0.2 µg/mL (≈ 0.261 µM).
On the same counts, the results for `COc1c(N2CCN(Cn3c(O)c(/N=N/C(N)=O)c4cc(C)ccc43)C(C)C2)c(F)cc2c(=O)c(C(=O)O)cn(C3CC3)c12` (centres undefined) are “Not toxic”, 4.5 µg/mL (≈ 7.43 µM) and 0.39 µg/mL (≈ 0.644 µM).

The values above are taken from ChEMBL document CHEMBL1147715, “Gatifloxacin derivatives: synthesis, antimycobacterial activities, and inhibition of Mycobacterium tuberculosis DNA gyrase” (Bioorg Med Chem Lett, 2006).
